Measurements taken from patent publication US6410515B1, “Peptide, a method for its preparation and a pharmaceutical composition containing the peptide” (Immunotech Developments Inc., priority 1995, dated 2002).

Tests used:
[1] = system: mixed lymphocyte culture (MLC); assay: Mixed lymphocyte culture (MLC) proliferation; format: cell-based, mice; conditions: FIG. 1
Procedure: The influence of the peptides of the invention on the proliferation of a mixed lymphocyte culture (MLC) was studied. The MLC experimental system is an in vitro analogue of the GVHD reaction.
Donor spleen cells from C57B1 mice ([…]) were injected into recipient (CBA×C57B1) F1 mice. Bone marrow was removed from the recipient and cultured for 4 days. The cultured cells were separated into 3 test groups, one group was treated with iDD, one with the L-peptide H-Ile-Glu-Trp-OH and one was a control. Each test peptide was added in various concentrations. Each determination was done in triplicate. ^3H-thymidine was added to each culture for 16 hours and the index of the proliferation of the cells was calculated.

[2] = system: caryocytes in femoral marrow; assay: Reconstitution of caryocyte numbers in femoral marrow after 4 Gy; format: in vivo, mice
Procedure: The reconstitution of caryocyte numbers and that of hemopoietic progenitors was studied in femoral marrow after irradiation in the dose of 4 Gy and the peptide injection. The test was performed in 12 groups of mice, 6 animals each, and lasted 14 days. Intraperitoneal injections of the peptide in a dose of 10 μg/kg were made 1 day and 2 days before the irradiation.

[3] = system: hemopoietic progenitor cells (CFU-S); assay: CFU-S content in bone marrow of mice irradiated with 4 Gy; format: in vivo; conditions: day 8, control 401 ± 48
Procedure: The effect of H-A-D-Trp-Y, where A is D-Glu or D-iGlu and Y is OH or a substituted amide, on protection and reconstitution of the population of hemopoietic progenitor cells in cytopenias of different origin was studied.
Ionising radiation was used to deplete bone marrow. Donor mice were irradiated at a dose of 4 Gy. For each of the two peptides, 10 μg/kg was injected intraperitoneally 1 hour, 1 day or 2 days before the irradiation (groups of 12 mice each). Bone marrow was taken from femoral bones 8 days after the irradiation. Eight days generally marks the beginning of an exponential reconstitution of both the total number of cells and the population of hemopoietic progenitors in the bone marrow, which were depleted as a result of irradiation.
On the 8th day a sharp statistically significant increase was recorded in the hemopoietic progenitor cells count in the bone marrow of the mice irradiated in the dose of 4 Gy who had received the peptide 2 days before the irradiation.

H-Ile-Glu-Trp-OH [reference compound]
Effect on proliferation of the allogenic lymphocytes (MLC) ([1]; 0.1 μg/ml): negligible inhibition | Effect on proliferation of the allogenic lymphocytes (MLC) ([1]; concentrations 1, 10, 20 μg/ml): stimulates the proliferation

H-D-Glu-D-Trp-OH
Caryocyte count ([2]; 10 μg/kg IP 1 day before 4 Gy, 4 days after irradiation, 4 Gy alone 9,0 ± 0,3): 8,0 ± 0,7 × 10^6 | Caryocyte count ([2]; 10 μg/kg IP 1 day before 4 Gy, 7 days after irradiation, 4 Gy alone 10,6 ± 0,8): 16,4 ± 0,7 × 10^6 | Caryocyte count ([2]; 10 μg/kg IP 1 day before 4 Gy, 11 days after irradiation, 4 Gy alone 17,0 ± 0,6): 16,0 ± 1,3 × 10^6 | Caryocyte count ([2]; 10 μg/kg IP 1 day before 4 Gy, 14 days after irradiation, 4 Gy alone 17,0 ± 1,2): 15,0 ± 0,6 × 10^6 | Caryocyte count ([2]; 10 μg/kg IP 2 days before 4 Gy, 4 days after irradiation, 4 Gy alone 9,0 ± 0,3): 8,5 ± 0,5 × 10^6 | Caryocyte count ([2]; 10 μg/kg IP 2 days before 4 Gy, 7 days after irradiation, 4 Gy alone 10,6 ± 0,8): 20,0 ± 0,7 × 10^6 | Caryocyte count ([2]; 10 μg/kg IP 2 days before 4 Gy, 11 days after irradiation, 4 Gy alone 17,0 ± 0,6): 23,0 ± 1,9 × 10^6 | Caryocyte count ([2]; 10 μg/kg IP 2 days before 4 Gy, 14 days after irradiation, 4 Gy alone 17,0 ± 1,2): 24,5 ± 0,9 × 10^6 | CFU-S count per femur ([3]; 10 μg/kg IP 1 hour before 4 Gy): 450 ± 95 | CFU-S count per femur ([3]; 10 μg/kg IP 1 day before 4 Gy): 780 ± 92 | CFU-S count per femur ([3]; 10 μg/kg IP 2 days before 4 Gy): 955 ± 93
